From patent US20240033224A1, “ENTERIC-COATED PELLET, METHOD FOR PREPARING SAME AND FORMULATION COMPRISING SAME” (LIVZON PHARMACEUTICAL GROUP INC., priority 2020, published 2024)

Experiment: Stability of prazole starting materials in phosphate buffer media at pH 6.8 and 8.0
Experimental: Phosphate buffer media at pH 6.8 and 8.0 containing 0.5% w/w of sodium dodecyl sulfate were prepared, added into dissolution cups, with 1000 mL per cup. 0.5 mg of each of ilaprazole, omeprazole magnesium, esomeprazole magnesium, rabeprazole sodium, pantoprazole and lansoprazole was weighed and added into the dissolution cups, stirred at 150 rpm by a paddle method to ensure that the prazole starting materials sank into the media and dissolved therein. 5 mL of each of the samples was collected at 15 min, 30 min, 45 min and 60 min respectively, and added to 20 mL of sodium hydroxide stabilization medium, and then the volume was made up to 50 mL with the mobile phase.
The collected sample content in the media was determined according to the determination method of omeprazole magnesium, esomeprazole magnesium, rabeprazole sodium, pantoprazole sodium and lansoprazole in the Chinese Pharmacopoeia (Volume II, 2015 Edition) so as to determine the stability of the prazoles in the media at pH 6.8 and 8.0.

[1] = buffer, 0.25 h, 0.5 µg/mL, pH 6.8
[2] = buffer, 0.25 h, 0.5 µg/mL, pH 8
[3] = buffer, 0.5 h, 0.5 µg/mL, pH 6.8
[4] = buffer, 0.75 h, 0.5 µg/mL, pH 6.8
[5] = buffer, 0.75 h, 0.5 µg/mL, pH 8

Row | SMILES | remaining amount after the degradation (buffer, 0 h, 0.5 µg/mL, pH 6.8) | remaining amount after the degradation (buffer, 0 h, 0.5 µg/mL, pH 8) | remaining amount after the degradation [1] | remaining amount after the degradation [2] | remaining amount after the degradation [3] | remaining amount after the degradation (buffer, 0.5 h, 0.5 µg/mL, pH 8) | remaining amount after the degradation [4] | remaining amount after the degradation [5] | remaining amount after the degradation (buffer, 1 h, 0.5 µg/mL, pH 6.8) | remaining amount after the degradation (buffer, 1 h, 0.5 µg/mL, pH 8) | stability in medium at pH 6.8 compared between prazoles (pH 6.8) | further results
1 | COc1ccnc(C[S+]([O-])c2nc3ccc(OC(F)F)cc3[nH]2)c1OC (stereo not drawn) [Pantoprazole sodium, pantoprazole sodium] | 100.0% | 100.0% | 83.6% | 98.6% | 65.9% | 95.9% | 50.2% | 92.2% | 35.4% | 91.4% | – | –
2 | COc1ccc2[n-]c([S+]([O-])Cc3ncc(C)c(OC)c3C)nc2c1.COc1ccc2[n-]c([S+]([O-])Cc3ncc(C)c(OC)c3C)nc2c1.[Mg+2] (stereo not drawn) [Omeprazole magnesium, omeprazole magnesium] | – | – | – | – | – | – | – | – | – | – | – | remaining amount after the degradation (buffer, 0 h, pH 6.8): 100.0%; remaining amount after the degradation (buffer, 0 h, pH 8): 100.0%; remaining amount after the degradation (buffer, 0.25 h, pH 6.8): 81.2%; remaining amount after the degradation (buffer, 0.25 h, pH 8): 98.2%; remaining amount after the degradation (buffer, 0.5 h, pH 6.8): 66.7%; remaining amount after the degradation (buffer, 0.5 h, pH 8): 95.4%; remaining amount after the degradation (buffer, 0.75 h, pH 6.8): 47.4%; remaining amount after the degradation (buffer, 0.75 h, pH 8): 96.3%; remaining amount after the degradation (buffer, 1 h, pH 6.8): 29.2%; remaining amount after the degradation (buffer, 1 h, pH 8): 91.2%
3 | Cc1c(OCC(F)(F)F)ccnc1C[S+]([O-])c1nc2ccccc2[nH]1 (stereo not drawn) [Lansoprazole, lansoprazole] | 100.0% | 100.0% | 85.7% | 98.7% | 70.2% | 96.2% | 53.6% | 95.3% | 38.6% | 93.5% | – | –
4 | COCCCOc1ccnc(C[S+]([O-])c2nc3ccccc3[nH]2)c1C (stereo not drawn) [Rabeprazole sodium, rabeprazole sodium] | 100.0% | 100.0% | 70.3% | 97.3% | 51.5% | 93.5% | 38.6% | 90.6% | 24.6% | 88.5% | – | –
5 | COc1ccc2[n-]c([S+]([O-])Cc3ncc(C)c(OC)c3C)nc2c1.COc1ccc2[n-]c([S+]([O-])Cc3ncc(C)c(OC)c3C)nc2c1.[Mg+2] (stereo not drawn) [Esomeprazole magnesium, esomeprazole magnesium] | – | – | – | – | – | – | – | – | – | – | the best | remaining amount after the degradation (medium at pH 6.8, 15 min): 89.6%; remaining amount after the degradation (medium at pH 6.8, 30 min): 70.9%; remaining amount after the degradation (medium at pH 6.8, 45 min): 56.0%; remaining amount after the degradation (medium at pH 6.8, 60 min): 41.4%; remaining amount after the degradation (medium at pH 8.0, 15 min): 99.2%; remaining amount after the degradation (medium at pH 8.0, 30 min): 98.6%; remaining amount after the degradation (medium at pH 8.0, 45 min): 97.6%; remaining amount after the degradation (medium at pH 8.0, 60 min): 96.4%
6 | COc1ccnc(C[S+]([O-])c2nc3cc(-n4cccc4)ccc3[nH]2)c1C (stereo not drawn) [Ilaprazole, ilaprazole] | 100.0% | 100.0% | 59.7% | 94.3% | 42.7% | 91.5% | 29.4% | 88.6% | 20.7% | 84.6% | the worst | –
